Where a SMILES comes first, the peptide text is derived from it. Bridges are numbered along the chain shown (N, C = ends). [ ]: non-standard residue; d: D form. The star is where a group is joined. Bip(3'-COOH) = N[C@@H](Cc1ccc(-c2cccc(C(=O)O)c2)cc1)C(=O)O; Bip(4'-COOH) = N[C@@H](Cc1ccc(-c2ccc(C(=O)O)cc2)cc1)C(=O)O; Phe(3-CF3) = N[C@@H](Cc1cccc(C(F)(F)F)c1)C(=O)O; Phe(4-COOH) = N[C@@H](Cc1ccc(C(=O)O)cc1)C(=O)O; Phe(4-CH2NH2) = NCc1ccc(C[C@H](N)C(=O)O)cc1; Asp(3,3-Me2) = CC(C)(C(=O)O)[C@H](N)C(=O)O; Bip = N[C@@H](Cc1ccc(-c2ccccc2)cc1)C(=O)O; Phe(3-CN) = N#Cc1cccc(C[C@H](N)C(=O)O)c1; Phe(3-OMe) = COc1cccc(C[C@H](N)C(=O)O)c1; Phe(4-CN) = N#Cc1ccc(C[C@H](N)C(=O)O)cc1; Ala(2-furyl) = N[C@@H](Cc1ccco1)C(=O)O; Phe(3-F) = N[C@@H](Cc1cccc(F)c1)C(=O)O; Phe(3-Me) = Cc1cccc(C[C@H](N)C(=O)O)c1; Val(3-OH) = CC(C)(O)[C@H](N)C(=O)O; 4Pal = N[C@@H](Cc1ccncc1)C(=O)O; Cha = N[C@@H](CC1CCCCC1)C(=O)O; Cit = NC(=O)NCCC[C@H](N)C(=O)O; Carboxymethyl = O=C(O)C*; Orn = NCCC[C@H](N)C(=O)O; Pra = C#CC[C@H](N)C(=O)O; Dab = NCC[C@H](N)C(=O)O; Dap = NC[C@H](N)C(=O)O
target: T1, human PD-1 / PD-L1-Ig binding on Jurkat cell line over-expressing human PD-1 (Jurkat-PD-1) (Homo sapiens, UniProt Q15116); assay: Jurkat-PD-1 Cell Binding High-Content Screening Assay (CBA); format: cell-based; conditions: Jurkat-PD-1 cells, PE-labeled PD-L1-Ig 20 nM final; read-out: Jurkat HPD1_PDL1 IC50
T1 construct: expressed in transfected cells; host or cells: Jurkat
Outline: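 Binding of fluorescent PD-L1-Ig (phycoerythrin linked via the Ig tag, 20 nM final) to PD-1-overexpressing Jurkat cells was imaged after a 2 h, 37° C compound pretreatment and 1 hour ligand incubation.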

T1 sequence (Q15116 25-288): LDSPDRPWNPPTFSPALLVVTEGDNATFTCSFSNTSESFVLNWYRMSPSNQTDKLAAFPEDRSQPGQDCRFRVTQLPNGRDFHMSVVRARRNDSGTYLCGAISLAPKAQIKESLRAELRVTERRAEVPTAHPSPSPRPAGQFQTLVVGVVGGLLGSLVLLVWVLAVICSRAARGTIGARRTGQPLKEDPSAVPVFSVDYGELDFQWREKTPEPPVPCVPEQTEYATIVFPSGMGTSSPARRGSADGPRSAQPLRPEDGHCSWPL

| Structure (SMILES) | IC50 [nM] |
| --- | --- |
| Cc1cccc(C[C@@H]2NC(=O)[C@H](CC(=O)O)NC(=O)[C@H](Cc3ccc(OCC(=O)O)cc3)NC(=O)[C@H](Cc3ccncc3)NC(=O)CSC[C@@H](C(=O)N[C@@H](CCN)C(N)=O)NC(=O)[C@H](CO)NC(=O)[C@H](C(C)(C)O)NC(=O)[C@H](CC3CCCCC3)NC(=O)[C@H](CCN)NC(=O)[C@@H](CC(C)C)NC(=O)C(C3CCNCC3)NC(=O)[C@H](Cc3ccc(OCC(=O)O)cc3)NC(=O)[C@H](Cc3ccc(-c4ccccc4)cc3)NC(=O)[C@H](Cc3ccc(OCC(=O)O)cc3)NC2=O)c1 (stereo partly drawn) [Compound 2083] | 912 |
| Cc1cccc(C[C@@H]2NC(=O)[C@H](CC(=O)O)NC(=O)[C@H](Cc3ccc(OCC(=O)O)cc3)NC(=O)[C@H](Cc3ccncc3)NC(=O)CSC[C@@H](C(=O)N[C@@H](CCN)C(N)=O)NC(=O)[C@H](C(C)(C)C(=O)O)NC(=O)[C@H](C(C)C)NC(=O)[C@H](CC3CCCCC3)NC(=O)[C@H](CCN)NC(=O)[C@@H](CC(C)C)NC(=O)[C@H](CCCN)NC(=O)[C@H](Cc3ccc(OCC(=O)O)cc3)NC(=O)[C@H](Cc3ccc(-c4ccccc4)cc3)NC(=O)[C@H](Cc3ccc(OCC(=O)O)cc3)NC2=O)c1 [Compound 2085] ({CH2CO}-[4Pal]Y(Carboxymethyl)D[Phe(3-Me)]Y(Carboxymethyl)[Bip]Y(Carboxymethyl)[Orn][dL][Dab][Cha]V[Asp(3,3-Me2)]C[Dab]-NH2; thioether N-14) | 70 |
| C#CC[C@H](NC(=O)[C@H](CCN)NC(=O)[C@@H]1CSCC(=O)N[C@@H](CCN)C(=O)N[C@@H](Cc2ccc(C(=O)O)cc2)C(=O)N[C@@H](CC(=O)O)C(=O)N[C@@H](Cc2cccc(C)c2)C(=O)N[C@@H](Cc2ccc(C(=O)O)cc2)C(=O)N[C@@H](Cc2ccc(-c3ccccc3)cc2)C(=O)N[C@@H](Cc2ccc(C(=O)O)cc2)C(=O)N[C@@H](CCCN)C(=O)N[C@H](CC(C)C)C(=O)N[C@@H](CCN)C(=O)N[C@@H](CC2CCCCC2)C(=O)N[C@@H](C(C)(C)O)C(=O)N[C@@H](CO)C(=O)N1)C(N)=O [Compound 2088] ({CH2CO}-[Dab][Phe(4-COOH)]D[Phe(3-Me)][Phe(4-COOH)][Bip][Phe(4-COOH)][Orn][dL][Dab][Cha][Val(3-OH)]SC[Dab][Pra]-NH2; thioether N-14) | 4.4 |
| CC(C)C[C@H]1NC(=O)[C@H](CCCN)NC(=O)[C@H](CCCNC(N)=O)NC(=O)[C@H](Cc2ccc(-c3ccccc3)cc2)NC(=O)[C@H](C(C)C)NC(=O)[C@H](Cc2c[nH]c3ccccc23)NC(=O)[C@H](CC(=O)O)NC(=O)[C@H](Cc2ccc(-c3ccc(C(=O)O)cc3)cc2)NC(=O)[C@H](CN)NC(=O)CSC[C@@H](C(=O)N[C@@H](C)C(N)=O)NC(=O)[C@H]([C@@H](C)O)NC(=O)[C@H](C(C)C)NC(=O)[C@H](CC2CCCCC2)NC(=O)[C@H](CCN)NC1=O [Compound 2089] ({CH2CO}-[Dap][Bip(4'-COOH)]DWV[Bip][Cit][Orn][dL][Dab][Cha]VTCA-NH2; thioether N-14) | 8.3 |
| CC(C)C[C@H]1NC(=O)[C@H](CCCN)NC(=O)[C@H](CCCNC(N)=O)NC(=O)[C@H](Cc2ccc(-c3ccccc3)cc2)NC(=O)[C@H](C(C)C)NC(=O)[C@H](Cc2c[nH]c3ccccc23)NC(=O)[C@H](CC(=O)O)NC(=O)[C@H](Cc2ccc(-c3cccc(C(=O)O)c3)cc2)NC(=O)[C@H](CN)NC(=O)CSC[C@@H](C(=O)N[C@@H](C)C(N)=O)NC(=O)[C@H]([C@@H](C)O)NC(=O)[C@H](C(C)C)NC(=O)[C@H](CC2CCCCC2)NC(=O)[C@H](CCN)NC1=O [Compound 2090] ({CH2CO}-[Dap][Bip(3'-COOH)]DWV[Bip][Cit][Orn][dL][Dab][Cha]VTCA-NH2; thioether N-14) | 7.8 |
| COc1cccc(C[C@@H]2NC(=O)[C@H](CN)NC(=O)CSC[C@@H](C(=O)N[C@@H](C)C(N)=O)NC(=O)[C@H]([C@@H](C)O)NC(=O)[C@H](C(C)C)NC(=O)[C@H](CC3CCCCC3)NC(=O)[C@H](CCN)NC(=O)[C@@H](CC(C)C)NC(=O)[C@H](CCCN)NC(=O)[C@H](CCCNC(N)=O)NC(=O)[C@H](Cc3ccc(-c4ccccc4)cc3)NC(=O)[C@H](C(C)C)NC(=O)[C@H](Cc3c[nH]c4ccccc34)NC(=O)[C@H](CC(=O)O)NC2=O)c1 [Compound 2091] ({CH2CO}-[Dap][Phe(3-OMe)]DWV[Bip][Cit][Orn][dL][Dab][Cha]VTCA-NH2; thioether N-14) | 24.3 |
| CC(C)C[C@H]1NC(=O)[C@H](CCCN)NC(=O)[C@H](CCCNC(N)=O)NC(=O)[C@H](Cc2ccc(-c3ccccc3)cc2)NC(=O)[C@H](C(C)C)NC(=O)[C@H](Cc2c[nH]c3ccccc23)NC(=O)[C@H](CC(=O)O)NC(=O)[C@H](Cc2cccc(C(F)(F)F)c2)NC(=O)[C@H](CN)NC(=O)CSC[C@@H](C(=O)N[C@@H](C)C(N)=O)NC(=O)[C@H]([C@@H](C)O)NC(=O)[C@H](C(C)C)NC(=O)[C@H](CC2CCCCC2)NC(=O)[C@H](CCN)NC1=O [Compound 2092] ({CH2CO}-[Dap][Phe(3-CF3)]DWV[Bip][Cit][Orn][dL][Dab][Cha]VTCA-NH2; thioether N-14) | 43.1 |
| CC(C)C[C@H]1NC(=O)[C@H](CCCN)NC(=O)[C@H](CCCNC(N)=O)NC(=O)[C@H](Cc2ccc(-c3ccccc3)cc2)NC(=O)[C@H](C(C)C)NC(=O)[C@H](Cc2c[nH]c3ccccc23)NC(=O)[C@H](CC(=O)O)NC(=O)[C@H](Cc2cccc(C#N)c2)NC(=O)[C@H](CN)NC(=O)CSC[C@@H](C(=O)N[C@@H](C)C(N)=O)NC(=O)[C@H]([C@@H](C)O)NC(=O)[C@H](C(C)C)NC(=O)[C@H](CC2CCCCC2)NC(=O)[C@H](CCN)NC1=O [Compound 2093] ({CH2CO}-[Dap][Phe(3-CN)]DWV[Bip][Cit][Orn][dL][Dab][Cha]VTCA-NH2; thioether N-14) | 12 |
| CC(C)C[C@H]1NC(=O)[C@H](CCCN)NC(=O)[C@H](CCCNC(N)=O)NC(=O)[C@H](Cc2ccc(-c3ccccc3)cc2)NC(=O)[C@H](C(C)C)NC(=O)[C@H](Cc2c[nH]c3ccccc23)NC(=O)[C@H](CC(=O)O)NC(=O)[C@H](Cc2cccnc2)NC(=O)[C@H](CN)NC(=O)CSC[C@@H](C(=O)N[C@@H](C)C(N)=O)NC(=O)[C@H]([C@@H](C)O)NC(=O)[C@H](C(C)C)NC(=O)[C@H](CC2CCCCC2)NC(=O)[C@H](CCN)NC1=O [Compound 2094] | 8.7 |
| CC(C)C[C@H]1NC(=O)[C@H](CCCN)NC(=O)[C@H](CCCNC(N)=O)NC(=O)[C@H](Cc2ccc(-c3ccccc3)cc2)NC(=O)[C@H](C(C)C)NC(=O)[C@H](Cc2c[nH]c3ccccc23)NC(=O)[C@H](CC(=O)O)NC(=O)[C@H](Cc2ccncc2)NC(=O)[C@H](CN)NC(=O)CSC[C@@H](C(=O)N[C@@H](C)C(N)=O)NC(=O)[C@H]([C@@H](C)O)NC(=O)[C@H](C(C)C)NC(=O)[C@H](CC2CCCCC2)NC(=O)[C@H](CCN)NC1=O [Compound 2096] | 4.5 |
| CC(C)C[C@H]1NC(=O)[C@H](CCCN)NC(=O)[C@H](CCCNC(N)=O)NC(=O)[C@H](Cc2ccc(-c3ccccc3)cc2)NC(=O)[C@H](C(C)C)NC(=O)[C@H](Cc2c[nH]c3ccccc23)NC(=O)[C@H](CC(=O)O)NC(=O)[C@H](Cc2cccc(F)c2)NC(=O)[C@H](CN)NC(=O)CSC[C@@H](C(=O)N[C@@H](C)C(N)=O)NC(=O)[C@H]([C@@H](C)O)NC(=O)[C@H](C(C)C)NC(=O)[C@H](CC2CCCCC2)NC(=O)[C@H](CCN)NC1=O [Compound 2097] ({CH2CO}-[Dap][Phe(3-F)]DWV[Bip][Cit][Orn][dL][Dab][Cha]VTCA-NH2; thioether N-14) | 18.8 |
| CC(C)C[C@H]1NC(=O)[C@H](CCCN)NC(=O)[C@H](CCCNC(N)=O)NC(=O)[C@H](Cc2ccc(-c3ccccc3)cc2)NC(=O)[C@H](C(C)C)NC(=O)[C@H](Cc2c[nH]c3ccccc23)NC(=O)[C@H](CC(=O)O)NC(=O)[C@H](Cc2ccc(CN)cc2)NC(=O)[C@H](CN)NC(=O)CSC[C@@H](C(=O)N[C@@H](C)C(N)=O)NC(=O)[C@H]([C@@H](C)O)NC(=O)[C@H](C(C)C)NC(=O)[C@H](CC2CCCCC2)NC(=O)[C@H](CCN)NC1=O [Compound 2098] ({CH2CO}-[Dap][Phe(4-CH2NH2)]DWV[Bip][Cit][Orn][dL][Dab][Cha]VTCA-NH2; thioether N-14) | 15.7 |
| CC(C)C[C@H]1NC(=O)[C@H](CCCN)NC(=O)[C@H](CCCNC(N)=O)NC(=O)[C@H](Cc2ccc(-c3ccccc3)cc2)NC(=O)[C@H](C(C)C)NC(=O)[C@H](Cc2c[nH]c3ccccc23)NC(=O)[C@H](CC(=O)O)NC(=O)[C@H](Cc2ccco2)NC(=O)[C@H](CN)NC(=O)CSC[C@@H](C(=O)N[C@@H](C)C(N)=O)NC(=O)[C@H]([C@@H](C)O)NC(=O)[C@H](C(C)C)NC(=O)[C@H](CC2CCCCC2)NC(=O)[C@H](CCN)NC1=O [Compound 2099] ({CH2CO}-[Dap][Ala(2-furyl)]DWV[Bip][Cit][Orn][dL][Dab][Cha]VTCA-NH2; thioether N-14) | 12.6 |
| CC(C)C[C@H]1NC(=O)[C@H](CCCN)NC(=O)[C@H](CCCNC(N)=O)NC(=O)[C@H](Cc2ccc(-c3ccccc3)cc2)NC(=O)[C@H](C(C)C)NC(=O)[C@H](Cc2c[nH]c3ccccc23)NC(=O)[C@H](CC(=O)O)NC(=O)[C@H](Cc2ccsc2)NC(=O)[C@H](CN)NC(=O)CSC[C@@H](C(=O)N[C@@H](C)C(N)=O)NC(=O)[C@H]([C@@H](C)O)NC(=O)[C@H](C(C)C)NC(=O)[C@H](CC2CCCCC2)NC(=O)[C@H](CCN)NC1=O [Compound 2100] | 21.2 |
| CC(C)C[C@H]1NC(=O)[C@H](CCCN)NC(=O)[C@H](CCCNC(N)=O)NC(=O)[C@H](Cc2ccc(-c3ccccc3)cc2)NC(=O)[C@H](C(C)C)NC(=O)[C@H](Cc2c[nH]c3ccccc23)NC(=O)[C@H](CC(=O)O)NC(=O)[C@H](Cc2ccc(C#N)cc2)NC(=O)[C@H](CN)NC(=O)CSC[C@@H](C(=O)N[C@@H](C)C(N)=O)NC(=O)[C@H]([C@@H](C)O)NC(=O)[C@H](C(C)C)NC(=O)[C@H](CC2CCCCC2)NC(=O)[C@H](CCN)NC1=O [Compound 2101] ({CH2CO}-[Dap][Phe(4-CN)]DWV[Bip][Cit][Orn][dL][Dab][Cha]VTCA-NH2; thioether N-14) | 6.6 |

Source: US20250163104A1, “MACROCYCLIC IMMUNOMODULATORS” (priority 2021, published 2025)
